Results: BindingDB's records for doi:10.1021/acs.jmedchem.9b01169 (Boehringer Ingelheim Rcv, 2019)

Experiment: Inhibition of wild type EGFR in mouse BAF3 cells assessed as reduction in cell proliferation incubated for 72 hrs by Celltiter-Glo luminescent cell viability assay

Structure (SMILES)	IC50 [nM]
CC(C)(O)Cn1/c(=N/C(=O)c2ccnc(-c3ccccc3)c2)[nH]c2ccccc21	> 10000
Cn1cc(-c2cc(C(=O)/N=c3\[nH]c4ccccc4n3CC(C)(C)O)ccn2)cn1	5100
Cc1cc2cc(n1)-c1cnn(C)c1OCCCCCN1/C(=N/C2=O)Nc2ccccc21	2300
COc1ccncc1-c1cc(C(=O)/N=c2\[nH]c3ccccc3n2CC(C)(C)O)ccn1	700
O=C1/N=C2\Nc3ccccc3N2CCCCCOc2ccccc2-c2cc1ccn2	1300
Cn1ncc2c1OCCCCCN1/C(=N/C(=O)c3cc(F)nc-2c3)Nc2ccccc21	270
Cc1cc2cc(n1)-c1cnn(C)c1OCCC[C@@H](C)CN1/C(=N/C2=O)Nc2ccccc21	1100
